Key:
Assay type in all cases: cell-based
[1] = target: T1, EGFR L858R/T790M/C797S (BaF3-LTC cells) (Homo sapiens, UniProt P00533, C797S/L858R/T790M); assay: EGFR degradation HTRF assay, BaF3-LTC cells; details: BaF3-LTC cells; for DC50: EGFR degradation, IC50 (DC50) from curve fit, read-out: DC50(nM) BaF3-LTC; for Dmax: maximum percentage of inhibition (degradation), read-out: Dmax (%) BaF3-LTC
T1 construct: expressed in transfected cells; host or cells: BaF3
Summary of the method: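 Cells treated 16 h at 37 °C, 5% CO2 in medium with 0.2% DMSO; top final concentration 10 uM, 5-fold dilution, 8 doses. Lysates read by HTRF (665/620 nm); degradation % versus DMSO high control, DC50 from four-parameter fit, Dmax as maximal degradation.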

[2] = target: T2, EGFR L858R/C797S (BaF3 LC cells) (Homo sapiens, UniProt P00533, C797S/L858R); assay: EGFR degradation HTRF assay, BaF3 LC cells; details: BaF3 LC, 16h treatment; for DC50: read-out: BaF3 LC DC50; for Dmax: maximum percentage of degradation, read-out: BaF3 LC Dmax (%)
T2 construct: expressed in transfected cells; host or cells: BaF3

[3] = test system: EGFR Del19/C797S (H1975-clone #23); assay: EGFR degradation HTRF assay, H1975-clone #23 DC cells; details: 16h treatment; for H1975 #23 DC Dmax (%): maximum percentage of degradation; for DC50: H1975 #23 DC, read-out: H1975 #23 DC DC50
Method: H1975-clone #28(Del19/T790M/C797S) and H1975-clone #23(Del19/C797S). EGFR-Del19/T790M/C797S and EGFR-Del19/C797S were stably expressed in H1975 cell lines by lentivirus-mediated over-expression, respectively. The EGFR over-expressed cells then underwent gene knockout, in which the EGFR targeting sgRNA was designed to only target the endogenous EGFR copies and preserve the exogenous EGFR copies. Followed by the gene knockout, the edited H1975 cells were seeded in 96 well plates at the concentration of 1 cell/well, cultured for about 2 weeks to allow single clones formation. The formed clones were screened by DNA sequencing and whole exon sequencing analysis for the desired edition. H1975-clone #28 and H1975-clone #23 were finally confirmed as homozygous Del19/T790M/C797S EGFR and Del19/C797S EGFR clones, respectively.
BaF3 WT(wild type), BaF3-LTC(L858R/T790M/C797S) and BaF3-DTC(Del19/T790M/C797S) cells are treated with compounds diluted in 0.2% DMSO cell culture medium and incubate for 16h, 37° C., 5% CO2, H1975-#36, H1975-#28, H1975-#23 and HCC827 cells are treated with compounds diluted in 0.2% DMSO cell culture medium on day 2, incubate for 16h, 37° C., 5% CO2.the final concentriation of compounds in all assay is start with 10 uM, 5-fold dilution, total 8 doses were included.
After 16h treatment, add HTRF lysis buffer to each well; seal the plate and incubate 1 hour at room temperature on a plate shaker; Once the cells are lysed, 16 μL of cell lysate are transferred to a PE 384-well HTRF detection plate; 4 μL of pre-mixed HTRF antibodies are added to each well; Cover the plate with a plate sealer, spin 1000 rpm for 1 min, Incubate overnight at room temperature; Read on BMG PheraStar with HTRF protocol (337 nm-665 nm-620 nm).
The inhibition (degradation) percentage of the compound was calculated by the following equation: Inhibition percentage of Compound=100-100×(Signal-low control)/(High control-low control), wherein signal=each test compound group
High control=Cell group with added DMSO and without compound, indicating microplate readings without EGFR degradation;
Dmax is the maximum percentage of inhibition (degradation).
The IC50 (DC50) value of a compound can be obtained by fitting the following equation
Y=Bottom+(TOP−Bottom)/(1+((IC50/X)^hillslope))
Wherein, X and Y are known values, and IC50, Hillslope, Top and Bottom are the parameters obtained by fitting with software. Y is the inhibition percentage (calculated from the equation), X is the concentration of the compound; IC50 is the concentration of the compound when the 50% inhibition is reached. The smaller the IC50 value is, the stronger the inhibitory ability of the compound is. Vice versa, the higher the IC50 value is, the weaker the inhibitory ability of the compound is; Hillslope represents the slope of the fitted curve, generally around 1*; Bottom represents the minimum value of the curve obtained by data fitting, which is generally 0%±20%; Top represents the maximum value of the curve obtained by data fitting, which is generally 100%±20%. The experimental data were fitted by calculating and analyzing with Dotmatics data analysis software.

[4] = test system: EGFR Del19/T790M/C797S (H1975-clone #28); assay: EGFR degradation HTRF assay, H1975-clone #28 DTC cells; details: H1975 # 28 DTC cells; for DC50: EGFR degradation, IC50 (DC50) from curve fit, read-out: DC50(nM) H1975 # 28 DTC; for Dmax (%) H1975 # 28 DTC: maximum percentage of inhibition (degradation)
Summary of the method: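 Read-out is an HTRF EGFR signal (337 nm excitation, 665/620 nm) from lysates of mutant-EGFR H1975 clones in which only the exogenous EGFR survives knockout. Treatment ran 16h at 37° C. from 10 uM final downward in 5-fold steps. DC50 comes from a logistic fit and Dmax is the maximal degradation.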

T2 sequence (P00533 25-1210 C797S/L858R): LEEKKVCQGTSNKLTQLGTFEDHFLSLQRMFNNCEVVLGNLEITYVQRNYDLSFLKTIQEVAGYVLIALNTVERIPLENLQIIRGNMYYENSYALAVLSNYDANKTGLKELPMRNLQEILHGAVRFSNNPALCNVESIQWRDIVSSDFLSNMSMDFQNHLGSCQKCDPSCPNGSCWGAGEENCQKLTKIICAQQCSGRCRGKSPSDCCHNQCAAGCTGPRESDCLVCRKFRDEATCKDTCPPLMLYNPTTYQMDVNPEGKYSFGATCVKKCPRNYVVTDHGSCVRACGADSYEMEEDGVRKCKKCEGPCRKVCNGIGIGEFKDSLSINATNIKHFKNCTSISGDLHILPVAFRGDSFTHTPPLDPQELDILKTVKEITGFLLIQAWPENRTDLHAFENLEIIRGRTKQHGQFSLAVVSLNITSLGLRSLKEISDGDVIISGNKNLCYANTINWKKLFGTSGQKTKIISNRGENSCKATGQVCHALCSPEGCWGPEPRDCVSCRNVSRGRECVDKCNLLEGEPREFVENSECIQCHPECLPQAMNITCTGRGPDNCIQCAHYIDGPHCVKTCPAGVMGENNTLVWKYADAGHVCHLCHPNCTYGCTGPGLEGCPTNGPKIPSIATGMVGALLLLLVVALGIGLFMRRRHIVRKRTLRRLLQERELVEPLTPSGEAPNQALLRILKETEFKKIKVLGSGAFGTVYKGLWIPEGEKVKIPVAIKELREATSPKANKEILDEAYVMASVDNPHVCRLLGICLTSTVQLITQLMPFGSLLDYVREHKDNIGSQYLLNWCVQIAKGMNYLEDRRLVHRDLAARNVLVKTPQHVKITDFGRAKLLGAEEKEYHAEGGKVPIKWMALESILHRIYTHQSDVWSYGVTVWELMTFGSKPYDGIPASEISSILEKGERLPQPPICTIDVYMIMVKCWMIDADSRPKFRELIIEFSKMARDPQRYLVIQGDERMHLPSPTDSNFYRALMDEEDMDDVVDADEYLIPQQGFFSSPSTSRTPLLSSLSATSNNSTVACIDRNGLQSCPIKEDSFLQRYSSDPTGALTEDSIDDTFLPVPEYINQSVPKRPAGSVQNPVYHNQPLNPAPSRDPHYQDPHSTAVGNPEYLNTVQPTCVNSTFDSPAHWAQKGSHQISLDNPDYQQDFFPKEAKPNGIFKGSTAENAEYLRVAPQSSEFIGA
T1 sequence (P00533 25-1210 T790M/C797S/L858R): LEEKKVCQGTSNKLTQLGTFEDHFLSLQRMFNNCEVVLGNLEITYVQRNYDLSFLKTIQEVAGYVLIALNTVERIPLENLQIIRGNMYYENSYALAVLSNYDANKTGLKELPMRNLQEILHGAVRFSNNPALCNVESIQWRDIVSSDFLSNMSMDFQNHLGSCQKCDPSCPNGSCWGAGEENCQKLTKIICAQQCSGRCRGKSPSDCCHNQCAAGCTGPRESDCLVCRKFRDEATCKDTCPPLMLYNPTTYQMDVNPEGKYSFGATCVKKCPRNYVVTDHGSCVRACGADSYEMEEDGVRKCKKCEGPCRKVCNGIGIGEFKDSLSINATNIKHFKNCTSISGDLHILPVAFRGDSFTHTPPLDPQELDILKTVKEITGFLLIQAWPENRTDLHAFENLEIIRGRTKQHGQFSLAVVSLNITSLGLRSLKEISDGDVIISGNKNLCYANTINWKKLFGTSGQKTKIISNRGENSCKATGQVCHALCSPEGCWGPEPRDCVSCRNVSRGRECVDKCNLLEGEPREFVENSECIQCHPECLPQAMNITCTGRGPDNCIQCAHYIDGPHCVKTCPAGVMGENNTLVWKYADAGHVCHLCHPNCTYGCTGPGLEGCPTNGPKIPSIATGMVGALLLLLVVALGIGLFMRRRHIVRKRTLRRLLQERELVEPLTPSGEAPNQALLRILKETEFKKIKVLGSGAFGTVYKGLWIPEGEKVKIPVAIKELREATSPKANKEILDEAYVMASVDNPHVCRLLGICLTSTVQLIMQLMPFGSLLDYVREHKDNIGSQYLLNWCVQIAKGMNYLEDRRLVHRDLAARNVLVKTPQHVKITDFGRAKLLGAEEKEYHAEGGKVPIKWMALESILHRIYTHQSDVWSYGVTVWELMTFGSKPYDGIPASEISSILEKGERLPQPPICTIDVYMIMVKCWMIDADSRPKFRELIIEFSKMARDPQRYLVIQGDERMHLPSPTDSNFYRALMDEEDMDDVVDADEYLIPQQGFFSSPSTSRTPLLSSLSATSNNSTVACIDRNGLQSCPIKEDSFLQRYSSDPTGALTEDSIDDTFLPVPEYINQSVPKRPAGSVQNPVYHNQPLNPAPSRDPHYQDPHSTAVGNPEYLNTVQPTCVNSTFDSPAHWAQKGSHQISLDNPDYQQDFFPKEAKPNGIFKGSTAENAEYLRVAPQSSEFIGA

Compound | DC50 [1] [nM] | DC50 [2] [nM] | H1975 #23 DC Dmax (%) [3] [%] | DC50 [3] [nM] | DC50 [4] [nM] | Dmax (%) H1975 # 28 DTC [4] [%] | Dmax [1] [%] | Dmax [2] [%]
CCOc1cc(N2CCC(N3CCN(CCc4cc(F)cc5c4n(C)c(=O)n5C4CCC(=O)NC4=O)CC3)CC2)c(CC)cc1Nc1ncc(Br)c(Nc2ccc3nc(CC)ccc3c2P(C)(C)=O)n1 (stereo not drawn) [Example 462, 3-(4-(2-(4-(1-(4-((5-bromo-4-((5-(dimethylphosphoryl)-2-ethylquinolin-6-yl)amino)pyrimidin-2-yl)amino)-5-ethoxy-2-ethylphenyl)piperidin-4-yl)piperazin-1-yl)ethyl)-6-fluoro-3-methyl-2-oxo-2,3-dihydro-1H-benzo[d]imidazol-1-yl)piperidine-2,6-dione] | 19.2 | 67.7 | 77.67 | 3.19 | 1.12 | 78.37 |  | 
CCOc1cc(N2CCC(N3CCN(CCc4ccc5c(c4)oc(=O)n5C4CCC(=O)NC4=O)CC3)CC2)c(CC)cc1Nc1ncc(Br)c(Nc2ccc3nc(CC)ccc3c2P(C)(C)=O)n1 (stereo not drawn) [Example 463, 3-(6-(2-(4-(1-(4-((5-bromo-4-((5-(dimethylphosphoryl)-2-ethylquinolin-6-yl)amino)pyrimidin-2-yl)amino)-5-ethoxy-2-ethylphenyl)piperidin-4-yl)piperazin-1-yl)ethyl)-2-oxobenzo[d]oxazol-3(2H)-yl)piperidine-2,6-dione] | 3.34 | 6.88 | 56.75 | 0.951 | 0.26 | 82.73 | 92.6 | 85.5
CCOc1cc(N2CCC(N3CCN(CCc4cc5oc(=O)n(C6CCC(=O)NC6=O)c5cc4C)CC3)CC2)c(CC)cc1Nc1ncc(Br)c(Nc2ccc3nc(CC)ccc3c2P(C)(C)=O)n1 (stereo not drawn) [Example 465, 3-(6-(2-(4-(1-(4-((5-bromo-4-((5-(dimethylphosphoryl)-2-ethylquinolin-6-yl)amino)pyrimidin-2-yl)amino)-5-ethoxy-2-ethylphenyl)piperidin-4-yl)piperazin-1-yl)ethyl)-5-methyl-2-oxobenzo[d]oxazol-3(2H)-yl)piperidine-2,6-dione] | 2.46 | 1.94 | 48.97 | > 16 | 1.92 | 70.68 | 84.5 | 92.7
CCOc1cc(N2CCC(N3CCN(CCc4cccc5c4n(C4CC4)c(=O)n5C4CCC(=O)NC4=O)CC3)CC2)c(CC)cc1Nc1ncc(Br)c(Nc2ccc3nc(CC)ccc3c2P(C)(C)=O)n1 (stereo not drawn) [Example 468, 3-(4-(2-(4-(1-(4-((5-bromo-4-((5-(dimethylphosphoryl)-2-ethylquinolin-6-yl)amino)pyrimidin-2-yl)amino)-5-ethoxy-2-ethylphenyl)piperidin-4-yl)piperazin-1-yl)ethyl)-3-cyclopropyl-2-oxo-2,3-dihydro-1H-benzo[d]imidazol-1-yl)piperidine-2,6-dione] | 12.2 | 66.1 | 79.65 | 11.9 | 0.998 | 74.46 | 90.2 | 82.8
CCOc1cc(N2CCC(N3CCN(CCc4cc(C)cc5c4oc(=O)n5C4CCC(=O)NC4=O)CC3)CC2)c(CC)cc1Nc1ncc(Br)c(Nc2ccc3nc(CC)ccc3c2P(C)(C)=O)n1 (stereo not drawn) [Example 469, 3-(7-(2-(4-(1-(4-((5-bromo-4-((5-(dimethylphosphoryl)-2-ethylquinolin-6-yl)amino)pyrimidin-2-yl)amino)-5-ethoxy-2-ethylphenyl)piperidin-4-yl)piperazin-1-yl)ethyl)-5-methyl-2-oxobenzo[d]oxazol-3(2H)-yl)piperidine-2,6-dione] | 11.6 | 21.7 | 73.64 | 1.48 | 2.6 | 81.32 | 90 | 89.8
CCOc1cc(N2CCC(N3CCN(CCc4ccc(C)c5c4oc(=O)n5C4CCC(=O)NC4=O)CC3)CC2)c(CC)cc1Nc1ncc(Br)c(Nc2ccc3nc(CC)ccc3c2P(C)(C)=O)n1 (stereo not drawn) [Example 470, 3-(7-(2-(4-(1-(4-((5-bromo-4-((5-(dimethylphosphoryl)-2-ethylquinolin-6-yl)amino)pyrimidin-2-yl)amino)-5-ethoxy-2-ethylphenyl)piperidin-4-yl)piperazin-1-yl)ethyl)-4-methyl-2-oxobenzo[d]oxazol-3(2H)-yl)piperidine-2,6-dione] | 418 | 300 | 64.89 | 9540 | > 10000 | 39.87 | 80.5 | 86.6
CCOc1cc(N2CCC(N3CCN(CCc4cccc5c4oc(=O)n5C4CCC(=O)NC4=O)CC3)CC2)c(CC)cc1Nc1ncc(Br)c(Nc2ccc3nc(CC)ccc3c2P(C)(C)=O)n1 (stereo not drawn) [Example 473, 3-(7-(2-(4-(1-(4-((5-bromo-4-((5-(dimethylphosphoryl)-2-ethylquinolin-6-yl)amino)pyrimidin-2-yl)amino)-5-ethoxy-2-ethylphenyl)piperidin-4-yl)piperazin-1-yl)ethyl)-2-oxobenzo[d]oxazol-3(2H)-yl)piperidine-2,6-dione] | 9.51 | 73.4 | 82.45 | 12.8 | 0.616 | 83.08 |  | 
CCOc1cc(N2CCC(N3CCN(CCc4cc(F)c(F)c5c4oc(=O)n5C4CCC(=O)NC4=O)CC3)CC2)c(CC)cc1Nc1ncc(Br)c(Nc2ccc3nc(CC)ccc3c2P(C)(C)=O)n1 (stereo not drawn) [Example 474, 3-(7-(2-(4-(1-(4-((5-bromo-4-((5-(dimethylphosphoryl)-2-ethylquinolin-6-yl)amino)pyrimidin-2-yl)amino)-5-ethoxy-2-ethylphenyl)piperidin-4-yl)piperazin-1-yl)ethyl)-4,5-difluoro-2-oxobenzo[d]oxazol-3(2H)-yl)piperidine-2,6-dione] | 12 | 30.4 | 68.97 | 2.65 | 1.15 | 73.43 | 79.2 | 81.1
